Test results from BindingDB's records for doi:10.1016/j.ejmech.2015.10.016 (University of Groningen, 2015).

target: T1, Histone acetyltransferase KAT8 (Homo sapiens, UniProt Q9H7Z6); test: Inhibition of recombinant N-terminal His6-tagged KAT8 (unknown origin) expressed in Escherichia Coli BL21 DE3 cells assessed as reduction of Co A level using histone H4 substrate after 15 mins by CPM fluorescence assay
T1 sequence (Q9H7Z6 whole entry): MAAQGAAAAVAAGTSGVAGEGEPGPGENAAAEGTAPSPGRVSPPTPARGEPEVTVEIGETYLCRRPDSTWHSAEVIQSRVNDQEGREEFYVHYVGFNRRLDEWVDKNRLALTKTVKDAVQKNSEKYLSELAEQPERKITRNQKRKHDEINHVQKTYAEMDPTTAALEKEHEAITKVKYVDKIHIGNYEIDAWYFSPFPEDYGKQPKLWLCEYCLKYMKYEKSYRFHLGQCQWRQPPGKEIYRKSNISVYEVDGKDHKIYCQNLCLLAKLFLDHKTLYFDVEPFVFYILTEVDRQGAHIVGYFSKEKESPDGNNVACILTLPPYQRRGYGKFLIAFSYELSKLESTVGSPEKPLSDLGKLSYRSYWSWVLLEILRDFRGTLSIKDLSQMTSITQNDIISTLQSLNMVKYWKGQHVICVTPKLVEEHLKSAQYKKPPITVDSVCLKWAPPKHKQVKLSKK

IC50 [µM]	Structure (SMILES)
> 631	CC1=NN(c2ccc(C(=O)O)cc2)C(=O)/C1=C/c1ccc(-c2cc(C)c(C)cc2[N+](=O)[O-])o1
123	CCCCCCCCCCc1cccc(O)c1C(=O)O
263	CCCCCCCCCCCCCCCc1ccc(O)c(C(=O)O)c1
191	CCCCCCCCCCc1ccc(O)c(C(=O)O)c1
525	O=C(O)c1c(O)cccc1CCCCCCCCCCCO
> 631	O=C(O)c1c(O)cccc1CCCCCO
> 631	CCCCCc1ccc(O)c(C(=O)O)c1
> 631	CCCCCCCSCC(=O)c1ccccc1O
> 631	CCCCCc1cccc(O)c1C(=O)O [6-Pentylsalicylic Acid]
